Experimental data: patent US4880014A, “Method for determining therapeutic drug dosage using bioelectrical resistance and reactance measurements” (priority 1988, dated 1989)
Where “and” joins values, the source holds several entries; their conditions need not be identical. Equal values may be shown once.

Legend:
[1] = Theophylline Cl, K and V predicted by bioelectrical impedance (multiple regression), and dose calculated from predicted Cl; design: species or system human; conditions: two-sided t-test
Text: An excitation current of 800 microamps and frequency of 50 kHz was then applied and (R) and (Xc) values obtained.
The independent variables set forth in Table VII were used in a stepwise multiple linear regression program to produce the models of best definition for (Cl), (K) and (V) by entering each patients individual variables (Cl), (V) and (K) into the program. It then fits a linear least-squares regression model to the entire set of independent variables to identify the best independent variables and their coefficients for the description of the […] dependent variables (Cl), (K) and (V). Insignificant variables were dropped from the model. The equations generated are those set forth previously as Equation 3, Equation 4 and Equation 5.
Other internationally recognized programs could also be used and may include BMDP (Biomedical Data Processing) and SPSS (Statistical Programming for the Social Sciences).
In Table VIII, clearance (Cl), elimination rate constant (K), and volume of distribution (V), determined for theophylline using a multiple regression analysis produced F variable sequence defined in Tables VII and IX are shown in columns B, D, and F, respectively. Table VII is the model sequence used to solve for (Cl), (K) and (V) as derived by stepwise regression analysis. […]

[2] = Theophylline pharmacokinetics in fifteen normal adult males from serum concentrations (Lagran), and dose calculated from measured Cl; format: in vivo, human
Text: Fifteen normal adult males were used in the following study. Each subject was given a single intravenous dosage of theophylline.
Serial blood samples were obtained, for all fifteen patients, from an intravenous catheter placed in the arm.
F=1.0, assuming 100% oral absorption

[3] = Gentamicin K and V predicted by bioelectrical impedance (multiple regression), and dosage regimen calculated from predicted K, V; design: species or system human; conditions: two-sided T-test
Description: Twelve human subjects participated in the following study. The resistance (R) and the reactance (Xc) of each patient was measured using a four-terminal impedance plethysmograph. During the measurement, the subjects were placed in the supine position on an insulative surface. The electrodes were attached in the following manner. Those areas of the patient's skin where the electrodes were to be connected were cleaned thoroughly with alcohol. The four pre-gelled electrodes were then attached to the patient such that one current electrode was attached to the dorsal surface of the patient's right hand at the distal metacarpals, one current electrode was attached to the patient's right foot at the location of the distal metatarsals, one detector electrode was connected to the patients right wrist at the right pisiform prominence, and one detector electrode was connected to the patient's right ankle between the medial and lateral malleoli. An excitation current of 800 microamps and frequency of 50 kHz was then applied and R and Xc values obtained. […]
(§1) Calculation of (K) and (V) from the measured serum concentration data was performed as were the dosage regimens using the measured serum concentration data by the equations of Sawchuk and Zaske which will be known to those skilled in the art.

[4] = Simulation of gentamicin peak and trough serum concentrations for an average 70 kg patient; design: species or system human
Description: Serum concentrations were then simulated for an average 70 kg patient given a one-hour infusion of the dose to achieve a postdose serum concentration of 6.0 mcg/ml and a predose serum concentration of 1.0 mcg/ml. This simulation was performed with the values of (K) and (V) determined by measured serum concentrations and the calculated dosage regimen from these measured (K) and (V) values, is recorded, respectively, in columns A and B of Table VI. A simulation was also performed with the dosage regimen determined by the bioelectrical impedance analysis of the present invention, using the patient's actual measured (K) and (V), to test the prediction error of the method of dosing of the present invention. Equations A and B which were discussed earlier were used for calculating dosing interval and dose. The latter is recorded respectively in columns C and D of Table VI.

[5] = human, in vivo, iv
Description: Twelve human subjects participated in the following study. The resistance (R) and the reactance (Xc) of each patient was measured using a four-terminal impedance plethysmograph. During the measurement, the subjects were placed in the supine position on an insulative surface. The electrodes were attached in the following manner. Those areas of the patient's skin where the electrodes were to be connected were cleaned thoroughly with alcohol. […]
The elimination rate constant was determined by nonlinear regression analysis of the serum concentration data for each patient using Micrononlin (Micrononlin, Elite Software, box 11223. Pittsburgh. PA 15238).
Volume of distribution was calculated by the Sawchuk-Zaske method.
as §1

## Cn1c(=O)c2[nH]cnc2n(C)c1=O [theophylline]
[1]
  Comparison of K, V, Cl and dosage regimens, bioelectrical impedance vs measured serum concentrations: no statistically significant differences
[2]; human, serum, iv, 4 mg/kg, mean of fifteen subjects, column A, read-out: Clearance (Cl), Meas., MEAN (converted)
  clearance: 52.3 mL/min
[2]; human, serum, iv, 4 mg/kg, mean of fifteen subjects, column C, read-out: Elimination Rate Constant (K), Meas., MEAN (converted)
  k el: 2.36e-05 s⁻¹
[2]; human, serum, iv, 4 mg/kg, mean of fifteen subjects, column E, read-out: Volume of Distribution (V), Meas., MEAN
  Vd: 39.4 L
[2]; individual patients (Pt. 1-15), single intravenous 4 mg/kg, 30 minute infusion, column C
  Elimination Rate Constant (K), Meas.: .0885 h and .0631 h and .0591 h and .0521 h and .0813 h and .0895 h and .1241 h and .0305 h and .1895 h and .0815 h and .0938 h and .0921 h and .0713 h and .0774 h

## gentamicin
[3]
  Comparison of K, V and dosage regimens, bioelectrical impedance vs measured serum concentration: no statistically significant differences
[4]
  Comparison of postdose or predose concentrations simulated from measured K, V vs bioelectrical impedance K, V: no statistically significant differences
[5]
  Elimination Rate Constant (K), Meas., mean: .270 hr -1
  Serum concentrations for all twelve patients: 2000 to 10000 ng/mL
